This note sets out measurements from US7790711B2, “Inhibitors of 11β-Hydroxysteroid Dehydrogenase” (Hoffmann-La Roche Inc., priority 2007, dated 2010).

The structures appear in SMILES notation. pIC50: −log10 of the molar value.

As usually defined, the pIC50 is the IC50 on a negative log10 scale, so that one unit is a factor of ten. Higher therefore signals a small IC50.

The target in the assay is T1, human 11betaHSD1 (Homo sapiens, UniProt P28845).
T1 construct: stably transfected with full-length human 11betaHSD1 cDNA; expressed in transfected cells
T1 sequence (P28845 whole entry): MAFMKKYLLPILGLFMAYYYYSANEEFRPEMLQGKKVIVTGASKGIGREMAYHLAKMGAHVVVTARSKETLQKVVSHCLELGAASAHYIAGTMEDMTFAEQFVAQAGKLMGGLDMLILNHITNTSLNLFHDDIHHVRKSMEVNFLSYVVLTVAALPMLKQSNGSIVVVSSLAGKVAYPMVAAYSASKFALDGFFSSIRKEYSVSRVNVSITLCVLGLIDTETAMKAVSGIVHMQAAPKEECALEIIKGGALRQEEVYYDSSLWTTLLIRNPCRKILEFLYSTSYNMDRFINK
Put plainly: in vitro inhibition of 11β-HSD1 in H4IIE cells stably transfected with human 11betaHSD1 (cortisone to cortisol, ELISA). It counts as cell-based. To be noted: H4IIE cells stably transfected with full-length human 11betaHSD1 cDNA; 200 nM cortisone, 2 hours at 37° C.; cortisol by competitive ELISA. On the procedure: H4IIE cells stably transfected with full-length human 11betaHSD1 cDNA were propagated and expanded in DMEM high glucose media (Invitrogen Cat# 11995-065), supplemented with 10% FCS (Invitrogen Cat# 10082-147), 100 units/mL and 100 μg/mL pen/strep (Invitrogen Cat#15140-122), and geneticin (800 μg/mL). One day prior to assay, cells were released from flasks using trypsin/EDTA, centrifuged, and washed with plating media (DMEM high glucose, without phenol red; Invitrogen Cat# 21063-029, supplemented with 2% charcoal stripped FCS; Gemini Cat# 100-119). From a 500,000 cells/mL suspension in plating media, 200 μL of cells were seeded into each well of a 96-well coated plate (BioCoat Cat#356461) and cultured overnight at 37° C. The following day, serially diluted 11betaHSD1 inhibitor compounds dissolved in DMSO were added to DMEM with BSA (2 mg/mL final). The final DMSO concentration was 1%. Media was aspirated from plates, and compounds in media were added to each well. The plates were incubated at 37° C. for 1 hour to allow for cellular uptake of compounds. 10 μL of substrate (cortisone) was then added to each well (200 nM final concentration) and incubated for 2 hours at 37° C. Plates were then transferred to ice and 80 μL of media transferred to a 96-well plate and stored at −30° C.
Quantitation of cortisol in cell media was performed by competitive ELISA using ELISA-Light (Tropix Cat# T10206/EL100S4), anti-cortisol EIA antibody (Assay Designs, Inc. Cat#80-1148), and cortisol-enzyme conjugate (Assay Designs, Inc. Cat# 80-1147). 384-well plates (Falcon Cat#353988) were precoated with anti-mouse IgG (Sigma Cat# M-1397) suspended in 0.9% NaCl (5 mg/mL), 50 μL per well, overnight at 4° C. Plates were washed with PBS, 0.1% Tween-20, then washed with PBS alone. Plates were blocked with Blocking Buffer (Tropix Cat# AI075) for 2 hours at room temperature. The plates were then washed as previously described. Assay samples were thawed, diluted 1:8 in DMEM, 2 mg/mL BSA, 1% DMSO, and 24 μL was transferred to wells of a pre-coated 384-well plate, as well as varying amounts of cortisol standard. To each well, 12 μL of cortisol-conjugate and 12 μL of anti-cortisol EIA antibody were added and incubated 2 hrs at room temperature on a orbital plate shaker. The wells were then emptied by inversion, then washed three times with 100 μL of PBS, 0.05% Tween-20, and then 2 times with 100 μL of Assay Buffer (Tropix). 60 μL of CDP-STAR (Tropix) was added to each well and incubated 10 minutes at room temperature. Chemiluminescence was measured using a Victor V Reader (Perkin Elmer). Cortisol in each sample was interpolated from a standard curve generated with known amounts of cortisol. IC50 values were calculated using the curve fitting software XLFit4 (IDBS).
(In an ELISA, binding on a coated surface is turned into a signal by an enzyme label.)
The compound `CC(C)Nc1c(C(=O)NC2C3CC4CC(C3)CC2C4)cnn1-c1ccccc1` (stereo not drawn) [Example 1, 5-Isopropylamino-1-phenyl-1H-pyrazole-4-carboxylic acid adamantan-2-ylamide] showed a pIC50 of 8.89.

In turn, `O=C(NC1C2CC3CC(C2)CC1C3)c1cnn(-c2ccccc2)c1NCc1ccccc1` (stereo not drawn) [Example 2, 5-Benzylamino-1-phenyl-1H-pyrazole-4-carboxylic acid adamantan-2-ylamide] gave a pIC50 of 7.85.

Regarding `O=C(NC1C2CC3CC(C2)CC1C3)c1cnn(-c2ccccc2)c1NCc1cccnc1` (stereo not drawn) [Example 3, 1-Phenyl-5-[(pyridin-3-ylmethyl)-amino]-1H-pyrazole-4-carboxylic acid adamantan-2-ylamide], the pIC50 is 6.46.

For the compound `O=C(NC1C2CC3CC(C2)CC1C3)c1cnn(-c2ccccc2)c1NCC1CC1` (stereo not drawn) [Example 4, 5-(Cyclopropylmethyl-amino)-1-phenyl-1H-pyrazole-4-carboxylic acid adamantan-2-ylamide], the pIC50 was 8.72.

`O=C(NC1C2CC3CC(C2)CC1C3)c1cnn(-c2ccccc2)c1NC1CCCCC1` (stereo not drawn) [Example 5, 5-Cyclohexylamino-1-phenyl-1H-pyrazole-4-carboxylic acid adamantan-2-ylamide] gave a pIC50 of 8.33. Against the preceding compound, the pIC50 is 0.39 log units lower.

With `O=C(NC1C2CC3CC(C2)CC1C3)c1cnn(-c2ccccc2)c1NC1CCC1` (stereo not drawn) [Example 6, 5-Cyclobutylamino-1-phenyl-1H-pyrazole-4-carboxylic acid adamantan-2-ylamide], the pIC50 was 8.12.

`CC1CCC(C)N1c1c(C(=O)NC2C3CC4CC(C3)CC2C4)cnn1-c1ccccc1` (stereo not drawn) [Example 7, 5-(2,5-Dimethyl-pyrrolidin-1-y1)-1-phenyl-1H-pyrazole-4-carboxylic acid adamantan-2-ylamide] gave a pIC50 of 8.40.

Consider `CC1CCCN1c1c(C(=O)NC2C3CC4CC(C3)CC2C4)cnn1-c1ccccc1` (stereo not drawn) [Example 8, 5-(2-Methyl-pyrrolidin-1-y1)-1-phenyl-1H-pyrazole-4-carboxylic acid adamantan-2-ylamide], for which the pIC50 was 8.89.

With `CC1CCCN(c2c(C(=O)NC3C4CC5CC(C4)CC3C5)cnn2-c2ccccc2)C1` (stereo not drawn) [Example 9, 5-(3-Methyl-piperidin-1-y1)-1-phenyl-1H-pyrazole-4-carboxylic acid adamantan-2-ylamide], the pIC50 was 8.52.

`CN(Cc1ccccc1)c1c(C(=O)NC2C3CC4CC(C3)CC2C4)cnn1-c1ccccc1` (stereo not drawn) [Example 10, 5-(Benzyl-methyl-amino)-1-phenyl-1H-pyrazole-4-carboxylic acid adamantan-2-ylamide] showed a pIC50 of 8.04.

On to `CN(CCc1ccccc1)c1c(C(=O)NC2C3CC4CC(C3)CC2C4)cnn1-c1ccccc1` (stereo not drawn) [Example 11, 5-(Methyl-phenethyl-amino)-1-phenyl-1H-pyrazole-4-carboxylic acid adamantan-2-ylamide], for which the negative logarithm of the IC50 (pIC50) was 8.43.

Regarding `CC1CN(c2c(C(=O)NC3C4CC5CC(C4)CC3C5)cnn2-c2ccccc2)CC(C)O1` (stereo not drawn) [Example 12, 5-(2,6-Dimethyl-morpholin-4-y1)-1-phenyl-1H-pyrazole-4-carboxylic acid adamantan-2-ylamide], the pIC50 is 8.43.

The compound `O=C(NC1C2CC3CC(C2)CC1C3)c1cnn(-c2ccccc2)c1N1CCCC1` (stereo not drawn) [Example 13, 1-Phenyl-5-pyrrolidin-1-y1-1H-pyrazole-4-carboxylic acid adamantan-2-ylamide] showed a pIC50 of 9.26.

`O=C(NC1C2CC3CC(C2)CC1C3)c1cnn(-c2ccccc2)c1N1CCCCCC1` (stereo not drawn) [Example 14, 5-Azepan-1-y1-1-phenyl-1H-pyrazole-4-carboxylic acid adamantan-2-ylamide] gave a pIC50 of 9.00.

Take `O=C(NC1C2CC3CC(C2)CC1C3)c1cnn(-c2ccccc2)c1N1CCOCC1` (stereo not drawn) [Example 15, 5-Morpholin-4-y1-1-phenyl-1H-pyrazole-4-carboxylic acid adamantan-2-ylamide]: the pIC50 was 8.52.

The compound `O=C(NC1C2CC3CC(C2)CC1C3)c1cnn(-c2ccccc2)c1N1CCCC(CO)C1` (stereo not drawn) [Example 16, 5-(3-Hydroxymethyl-piperidin-1-y1)-1-phenyl-1H-pyrazole-4-carboxylic acid adamantan-2-ylamide] gave a pIC50 of 8.19. Compared with the last compound, the pIC50 is 0.33 log units lower.

`O=C(NC1C2CC3CC(C2)CC1C3)c1cnn(-c2ccccc2)c1N1CCC[C@H]1CO` (stereo partly drawn) [Example 17, 5-((S)-2-Hydroxymethyl-pyrrolidin-1-y1)-1-phenyl-1H-pyrazole-4-carboxylic acid adamantan-2-ylamide] gave a pIC50 of 7.38.

`O=C(NC1C2CC3CC(C2)CC1C3)c1cnn(-c2ccccc2)c1N1CCC(O)CC1` (stereo not drawn) [Example 18, 5-(4-Hydroxy-piperidin-1-y1)-1-phenyl-1H-pyrazole-4-carboxylic acid adamantan-2-ylamide] had a pIC50 of 8.52.

Consider `O=C(NC1C2CC3CC(C2)CC1C3)c1cnn(-c2ccccc2)c1N1CCCC(O)C1` (stereo not drawn) [Example 19, 5-(3-Hydroxy-piperidin-1-y1)-1-phenyl-1H-pyrazole-4-carboxylic acid adamantan-2-ylamide], for which the pIC50 is 8.04.

In turn, `O=C(NC1C2CC3CC(C2)CC1C3)c1cnn(-c2ccccc2)c1N1CCC(O)C1` (stereo not drawn) [Example 20, 5-(3-Hydroxy-pyrrolidin-1-y1)-1-phenyl-1H-pyrazole-4-carboxylic acid adamantan-2-ylamide] had a pIC50 of 7.89.

The compound `CC(O)CNc1c(C(=O)NC2C3CC4CC(C3)CC2C4)cnn1-c1ccccc1` (stereo not drawn) [Example 21, 5-(2-Hydroxy-propylamino)-1-phenyl-1H-pyrazole-4-carboxylic acid adamantan-2-ylamide] showed a pIC50 of 7.39.

Turning to `O=C(NC1C2CC3CC(C2)CC1C3)c1cnn(-c2ccccc2)c1NCCO` (stereo not drawn) [Example 22, 5-(2-Hydroxy-ethylamino)-1-phenyl-1H-pyrazole-4-carboxylic acid adamantan-2-ylamide], the pIC50 is 7.68.

`O=C(NC1C2CC3CC(C2)CC1C3)c1cnn(-c2ccccc2)c1NCCCO` (stereo not drawn) [Example 23, 5-(3-Hydroxy-propylamino)-1-phenyl-1H-pyrazole-4-carboxylic acid adamantan-2-ylamide] showed a pIC50 of 7.26.

`O=C(NC1C2CC3CC(C2)CC1C3)c1cnn(-c2ccccc2)c1NCCCCO` (stereo not drawn) [Example 24, 5-(4-Hydroxy-butylamino)-1-phenyl-1H-pyrazole-4-carboxylic acid adamantan-2-ylamide]: the pIC50 is 8.12.

The compound `O=C(NC1C2CC3CC(C2)CC1C3)c1cnn(-c2ccccc2)c1NCC1CCCO1` (stereo not drawn) [Example 25, 1-Phenyl-5-[(tetrahydro-furan-2-ylmethyl)-amino]-1H-pyrazole-4-carboxylic acid adamantan-2-ylamide] had a pIC50 of 8.70.

`CN(CCO)c1c(C(=O)NC2C3CC4CC(C3)CC2C4)cnn1-c1ccccc1` (stereo not drawn) [Example 26, 5-[(2-Hydroxy-ethyl)-methyl-amino]-1-phenyl-1H-pyrazole-4-carboxylic acid adamantan-2-ylamide] had a pIC50 of 7.85.

`COCCCNc1c(C(=O)NC2C3CC4CC(C3)CC2C4)cnn1-c1ccccc1` (stereo not drawn) [Example 27, 5-(3-Methoxy-propylamino)-1-phenyl-1H-pyrazole-4-carboxylic acid adamantan-2-ylamide]: the pIC50 was 8.85.
